Experiments:
SKOV3 cells = assay: Serum starved proliferation assay on the ovarian carcinoma SKOV3 cells (C3); assay type: cell-based; conditions: Homo sapiens, SK-OV-3, 72 h, EGF stimulated (100 ng/ml, 72 hours, serum free) or 72 hours with compounds; MTT cell viability assay; read-out: SKOV3 cell (C3): pIC50 (converted)
Experimental: The ovarian carcinoma cell line (SKOV3) was used in an epidermal growth factor stimulated cell proliferation assay, to assess the inhibitory effect of the compounds on EGF in whole cells.
In a first step the SKOV3 cells were incubated for 24 hours in the presence of 10% FCS serum. In the second step the cells were incubated with the compounds to be tested in a serum free condition (37° C. and 5% (v/v) CO2) and subsequently stimulated for 72 hours with EGF at a final concentration of 100 ng/ml. The effect of the compounds on the EGF stimulation was finally assessed in a standard MTT cell viability assay.
Alternatively, the SKOV3 cells were incubated for 24 hours in the presence of 10% FCS serum. In the second step the cells were incubated for 72 hours with the compounds to be tested and the effect of the compounds on cell proliferation was finally assessed in a standard MTT cell viability assay.

EGFR = EGFR (Homo sapiens, UniProt P00533); assay: In vitro inhibition of EGFR, Flash Plate or glass-fiber filter technology (C2); assay type: biochemical; parameters: 0.5 μg EGFR-kinase domain/well; conditions: EGFR-kinase domain, 5.0 μM unlabeled ATP, read-out: Kinase activity.(C2): pIC50 (converted)
Sequence of EGFR (P00533 712-979 limits assumed): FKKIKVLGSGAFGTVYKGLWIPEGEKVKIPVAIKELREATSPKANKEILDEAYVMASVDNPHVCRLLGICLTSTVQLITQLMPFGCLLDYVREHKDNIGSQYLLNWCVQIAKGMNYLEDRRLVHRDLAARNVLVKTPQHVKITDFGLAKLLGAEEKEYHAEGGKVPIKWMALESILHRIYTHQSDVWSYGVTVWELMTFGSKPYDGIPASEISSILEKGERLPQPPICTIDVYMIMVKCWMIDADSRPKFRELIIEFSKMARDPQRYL
Experimental: The in vitro inhibition of EGFR was assessed using either the Flash Plate technology or the glass-fiber filter technology as described by Davies, S. P. et al., Biochem J. (2000), 351; p. 95-105. The Flash Plate technology is generally described by B. A. Brown et al. in High Throughput Screening (1997), p. 317-328. Editor(s): Devlin, John P. Publisher: Dekker, New York, N.Y.
In the Flash Plate EGFR kinase reaction assay, a kinase substrate consisting of biotinylated poly(L-glutamic acid-L-tyrosine) (poly(GT)biotin), is incubated with the aforementioned protein in the presence of (^33P) radiolabeled ATP. (^33P) phosphorylation of the substrate is subsequently measured as light energy emitted using a streptavidin-coated Flash Plate (PerkinElmer Life Sciences) by trapping and quantifying the binding of the biotin tagged and radiolabeled substrate.
The EGFR kinase reaction is performed at 30° C. for 60 minutes in a 96-well microtiter FlashPlate (PerkinElmer Life Sciences). For each of the tested compounds a full dose response 1·10^−6M to 1·10^−10M has been performed. IRESSA° and Tarceva™ (erlotinib) were used as reference compounds. The 100 μl reaction volume contains 54.5 mM TrisHCl pH 8.0, 10 mM MgCl2, 100 μM Na3VO4, 5.0 μM unlabeled ATP, 1 mM DTT, 0.009% BSA, 0.8 μCi AT^33P, 0.35 μg/well poly(GT)biotin and 0.5 μg EGFR-kinase domain/well.
The reaction is stopped by aspirating the reaction mixture and washing the plate 3× with 200 μl wash/stop buffer (PBS+100 mM EDTA). After the final wash step 200 μl of wash/stop buffer was added to each well and the amount of phosphorylated (^33P) Poly(GT)biotin determined by counting (30 sec/well) in a microtiterplate scintillation counter.
In the glass-fiber filter technology EGFR kinase reaction assay, a kinase substrate consisting of poly(L-glutamic acid-L-tyrosine) (poly(GT)), is incubated with the aforementioned protein in the presence of (^33P) radiolabeled ATP. (^33P) Phosporylation of the substrate is subsequently measured as radioactivity bound on a glassfiber-filter.
The EGFR kinase reaction is performed at 25° C. for 10 minutes in a 96-well microtiterplate. For each of the tested compounds a full dose response 1·10^−6M to 1·10^−10M has been performed. IRESSA° and Tarceva™ (erlotinib) were used as reference compounds. The 25 μl reaction volume contains 60 mM TrisHCl pH 7.5, 3 mM MgCl2, 3 mM Mn Cl2, 3 μM Na3VO4, 50 μg/ml PEG20000, 5.0 μM unlabeled ATP, 1 mM DTT, 0.1 μCi AT^33P, 62.5 ng/well poly(GT) and 0.5 μg EGFR-kinase domain/well.
The reaction is stopped by adding 5 μl of a 3% phosphoric acid solution. 10 μl of the reaction mixture is then spotted onto a Filtermat A filter (Wallac) and washed 3 times for 5 min. in 75 mM phosphoric acid and 1 time for 5 min. in methanol prior to drying and quantification on the Typhoon (Amersham) using a LE phosphorage storage screen.

Row | Structure (SMILES) | IC50 (SKOV3 cells) | IC50 (EGFR)
1 | COc1cc2ncnc3c2cc1OCCN(C(=O)CN1CCOCC1)CC(=O)NCCCc1ccc(Cl)cc1N3 [Compound 50, 4,6-ethanediylidenepyrimido[4,5-b][6,1,9,12]benzoxatriazacycloheptadecin-12(13H)-one, 19-chloro-8,9,10,11,14,15,16,21-octahydro-22-methoxy-10-(4-morpholinylacetyl)-] | 158 nM | 79.4 nM
2 | COc1cc2ncnc3c2cc1OCCN(C)CC(=O)NCCCc1ccc(Cl)cc1N3 [Compound 52, 4,6-ethanediylidenepyrimido[4,5-b][6,1,9,12]benzoxatriazacycloheptadecin-12(13H)-one, 19-chloro-8,9,10,11,14,15,16,21-octahydro-22-methoxy-10-methyl-] | 100 nM | 79.4 nM
3 | CCN1CCOc2cc3c(ncnc3cc2OC)Nc2cc(Cl)ccc2CCCNC(=O)C1 [Compound 53, 4,6-ethanediylidenepyrimido[4,5-b][6,1,9,12]benzoxatriazacycloheptadecin-12(13H)-one, 19-chloro-10-ethyl-8,9,10,11,14,15,16,21-octahydro-22-methoxy-] | 501 nM | 200 nM
4 | COc1cc2ncnc3c2cc1OCC1CCCN1CC(=O)NCCCc1ccc(Cl)cc1N3 (stereo not drawn) [Compound 54, 1,22-ethanediylidene-5H,17H-pyrimido[4,5-b]pyrrolo[2,1-h][6,1,9,12]benzoxatriazacycloheptadecin-14(15H)-one, 7-chloro-10,11,12,13,18,19,19a,20-octahydro-24-methoxy-] | 1260 nM | 126 nM
5 | COc1cc2ncnc3c2cc1OCCCNCC(=O)NCCCc1ccc(Cl)cc1N3 [Compound 55, 4,6-ethanediylidene-8H-pyrimido[4,5-b][6,1,10,13]benzoxatriazacyclooctadecin-13(14H)-one, 20-chloro-9,10,11,12,15,16,17,22-octahydro-23-methoxy-] | 200 nM | 501 nM
6 | COc1cc2ncnc3c2cc1OCC1CCCN(CC(=O)NCCCc2ccc(Cl)cc2N3)C1 (stereo not drawn) [Compound 56, 14H-4,6-ethanediylidene-9,13-methano-8H-pyrimido[4,5-b][6,1,12,15]benzoxatriazacycloeicosin-15(16H)-one, 22-chloro-9,10,11,12,17,18,19,24-octahydro-26-methoxy-] | 10000 nM | 1580 nM
7 | COc1cc2ncnc3c2cc1OCC1CCN(CC1)CC(=O)NCCCc1ccc(Cl)cc1N3 [Compound 57, 13H-4,6-ethanediylidene-9,12-ethanopyrimido[4,5-b][6,1,11,14]benzoxatriazacyclononadecin-14(15H)-one, 21-chloro-8,9,10,11,16,17,18,23-octahydro-26-methoxy-] | 398 nM | 6310 nM
8 | COc1cc2ncnc3c2cc1OCCC1CCN(CC1)CC(=O)NCCCc1ccc(Cl)cc1N3 [Compound 58, 14H-4,6-ethanediylidene-10,13-ethano-8H-pyrimido[4,5-b][6,1,12,15]benzoxatriazacycloeicosin-15(16H)-one, 22-chloro-9,10,11,12,17,18,19,24-octahydro-27-methoxy-] | 2000 nM | 2000 nM
9 | COc1cc2ncnc3c2cc1OCCCNC(=O)CNC(=O)Cc1ccc(Cl)cc1N3 [Compound 60, 4,6-ethanediylidenepyrimido[4,5-b][6,1,10,13]benzoxatriazacycloheptadecine-12,15-dione, 19-chloro-8,9,10,11,13,14,16,21-octahydro-22-methoxy-] | 2 nM | 15.8 nM
10 | COc1cc2ncnc3c2cc1OCCCCCNCc1cc(F)c(Br)cc1N3 [Compound 61, 4,6-ethenopyrimido[4,5-b][6,1,12]benzoxadiazacyclopentadecine, 17-bromo-16-fluoro-8,9,10,11,12,13,14,19-octahydro-20-methoxy-] | 398 nM | 15.8 nM
11 | COc1cc2ncnc3c2cc1OCCN(CCN1CCOCC1)C(=O)CNC(=O)Cc1ccc(Cl)cc1N3 [Compound 62, 4,6-ethanediylidene-8H-pyrimido[4,5-b][6,1,9,12]benzoxatriazacyclohexadecine-11,14-dione, 18-chloro-9,10,12,13,15,20-hexahydro-21-methoxy-10-[2-(4-morpholinyl)ethyl]-] | 5010 nM | 398 nM
12 | COCCN1CCOc2cc3c(ncnc3cc2OC)Nc2cc(Cl)ccc2CC(=O)NCC1=O [Compound 63, 4,6-ethanediylidene-8H-pyrimido[4,5-b][6,1,9,12]benzoxatriazacyclohexadecine-11,14-dione, 18-chloro-9,10,12,13,15,20-hexahydro-21-methoxy-10-(2-methoxyethyl)-] | 2000 nM | 126 nM
13 | COc1cc2ncnc3c2cc1OCCCCCCOc1cc(NC(=O)c2ccc(F)cc2)ccc1N3 [Compound 64, benzamide, 4-fluoro-N-(8,9,10,11,12,13-hexahydro-20-methoxy-4,6-ethanediylidene-19H-pyrimido[4,5-b][6,13,1]benzodioxaazacyclopentadecin-16-yl)-] | 398 nM | 1000 nM
14 | COc1cc2ncnc3c2cc1OCCNC(=O)C(CC(C)C)NC(=O)Cc1ccc(Cl)cc1N3 (stereo not drawn) [Compound 67, 4,6-ethanediylidene-8H-pyrimido[4,5-b][6,1,9,12]benzoxatriazacyclohexadecine-11,14-dione, 18-chloro-9,10,12,13,15,20-hexahydro-21-methoxy-12-(2-methylpropyl)-] | 501 nM | 100 nM
15 | COc1cc2ncnc3c2cc1OCCCNC(=O)C(CC(C)C)NC(=O)Cc1ccc(Cl)cc1N3 (stereo not drawn) [Compound 68, 4,6-ethanediylidenepyrimido[4,5-b][6,1,10,13]benzoxatriazacycloheptadecine-12,15-dione, 19-chloro-8,9,10,11,13,14,16,21-octahydro-22-methoxy-13-(2-methylpropyl)-] | 6.31 nM | 12.6 nM
16 | COc1cc2ncnc3c2cc1OCCCCNC(=O)CNCc1ccc(Cl)cc1N3 [Compound 101, 4,6-ethanediylidenepyrimido[4,5-b][6,1,11,14]benzoxatriazacycloheptadecin-13(8H)-one, 19-chloro-9,10,11,12,14,15,16,21-octahydro-22-methoxy-] | 31.6 nM | 251 nM
17 | COc1cc2ncnc3c2cc1OCCCCNC(=O)C1CCCN1Cc1cc(F)c(Cl)cc1N3 (stereo not drawn) [Compound 102, 4,6-ethanediylidenepyrimido[4,5-b]pyrrolo[2,1-m][6,1,11,14]benzoxatriazacycloheptadecin-13(8H)-one, 21-chloro-20-fluoro-9,10,11,12,13a,14,15,16,18,23-decahydro-24-methoxy-] | 50.1 nM | 200 nM
18 | COc1cc2ncnc3c2cc1OCCNC(=S)C1CCCN1Cc1cc(F)c(Cl)cc1N3 (stereo not drawn) [Compound 104, 4,6-ethanediylidenepyrimido[4,5-b]pyrrolo[2,1-k][6,1,9,12]benzoxatriazacyclopentadecine-11(8H)-thione, 19-chloro-18-fluoro-9,10,11a,12,13,14,16,21-octahydro-22-methoxy-] | 316 nM | 1000 nM

Source: US8394786B2, “Quinazoline derivatives” (Janssen Pharmaceutica N.V., priority 2003, dated 2013)
